# According to patent US8226976B2, “Method of using cell-free protein synthesis to produce a membrane protein” (Riken, priority 2007, dated 2012):
# Columns and labels:
# [1] = in water; cited from earlier work
# [2] = test system: cell-free protein synthesis system (S30 extract); assay: cell-free synthesis of BR by the dialysis method with the cholate concentration kept constant; assay type: biochemical, E. coli; settings: 1% sodium cholate added to internal and external dialysis solutions; FIG. 2, Lanes 3, 4
# Description: A protein synthesis reaction was performed as follows: an internal solution of the composition as shown in table 1 as mentioned below was supplied with 100 μM all-trans retinal at final concentration (Sigma), 9 μg of synthetic plasmid as necessary, a predetermined concentration of a detergent, and 6 mg of egg yolk phosphatidylcholine (Type XVI-E, Sigma) to prepare a reaction solution, 0.9 ml of which was poured into a dialysis membrane (Spectra/Por 7, Molecular Weight Cut Off: 15000, Spectrum). The synthesis reaction was performed at 30° C. for 6 h during dialysis which was to 10 times volume of external solution (9 mL) in a 15 mL conical tube by rotary shaking with a rotary shaker (RT-50, TAITEC). […]
# After termination of the synthesis reaction, the reaction internal solution was centrifuged at 15000 rpm for 10 min. […] Scatter correction was performed by subjecting the determined scores from 680 nm to 750 nm to linear regression to subtract from the measured spectrums. The amount of an active BR was calculated from the score of the spectrum of 560 nm as subjected to the scatter correction using the molar absorption coefficient: 42000 and the molecular weight: 31.4 k. […]
SMILES,critical micelle concentration (cmc) [1],synthesis of BR (effect of inhibiting protein synthesis) [2]
"C[C@H](CCC(=O)NCCC[N+](C)(C)CCCS(=O)(=O)[O-])[C@H]1CC[C@H]2[C@@H]3[C@H](O)C[C@@H]4C[C@H](O)CC[C@]4(C)[C@H]3C[C@H](O)[C@]12C [CHAPS, 3-[(3-cholamidepropyl)dimethylammonio]-1-propanesulfonate]",0.49 % (w/v),–
C[C@@H]1CC[C@@]2(OC1)O[C@H]1[C@@H](O)[C@H]3[C@@H]4CC[C@H]5C[C@@H](O[C@@H]6O[C@H](CO)[C@H](O[C@@H]7O[C@H](CO)[C@@H](O)[C@H](O[C@@H]8OC[C@@H](O)[C@H](O)[C@H]8O)[C@H]7O[C@@H]7O[C@H](CO)[C@H](O)[C@H](O[C@@H]8O[C@H](CO)[C@@H](O)[C@H](O)[C@H]8O)[C@H]7O)[C@H](O)[C@H]6O)[C@H](O)C[C@]5(C)[C@H]4CC[C@]3(C)[C@H]1[C@@H]2C [digitonin],0.06 % (w/v),–
C[C@H](CCC(=O)[O-])[C@H]1CC[C@H]2[C@@H]3[C@H](O)C[C@@H]4C[C@H](O)CC[C@]4(C)[C@H]3C[C@H](O)[C@]12C.[Na+] [sodium cholate],0.41 % (w/v),synthesis of BR was not found
